What was measured:
E. coli 25922 [1] = assay: Dissipation of the transmembrane potential, DiSC3(5); assay type: cell-based, Escherichia coli; details: 10 μM, compared to positive control 50 µM C12K-7α8
Procedure: Inner Membrane Damages: Damage inflicted to the cytoplasmic membrane was assessed using 3,3-dipropylthiadicarbocyanine iodide (DiSC3(5)), a lipophilic potentiometric dye that changes its fluorescence intensity in response to changes in transmembrane potential. Bacteria were grown overnight, diluted and at mid-log were adjusted to O.D = 0.1 (600 nm), centrifuged (10,000 RCF, 5 min), and re-suspended in the assay buffer (5 mM HEPES containing 20 mM glucose, 0.2 mM EDTA, and 50 mM KCl). Then, DiSC3(5) dye was added (to final concentration 4 μM) and incubated at 37 °C for 60 min in the dark to allow dye uptake. An aliquot (180 μL) of the bacterial suspension was placed in a 96-well plate and fluorescence was monitored until baseline stabilization (excitation, 622 nm; emission, 670 nm, monitored using Synergy HT, BioTek Instruments, Winooski, VT, USA). […] Fluorescence was immediately monitored continuously for 30 min. […]
Figure 7 Evidence for proton and ATP leakage across the inner membrane. (a) Dissipation of the transmembrane potential in E. coli 25922 (8.8 ± 1.8 × 10^7 CFU/mL) pre-incubated with DiSC3(5) as determined 15 min after exposure to C14OOc12O (orange) or to C14(ω5)OOc10O (green). […] (b) Intracellular ATP concentrations were determined after 1 h incubation with C14(ω5)OOc10O (green) or C14OOc12O (orange) using E. coli 25922 at 5 × 10^7 CFU/mL. RLU, relative luminescence units.

[2] = Hydrophobicity by reversed phase HPLC elution; assay type: physicochemical; details: % acetonitrile required for elution in reversed phase HPLC, C18 column; rounded to nearest whole number
E. coli 25922 [3] = assay type: cell-based, Escherichia coli; details: 25922, 24 h
Procedure: Sensitization to plasma components was assessed by mixing bacteria with serial two-fold OAC dilutions in 80% human plasma (Israel Blood Bank) or plasma from the specified species (Technion preclinical research authority or VetSource), as described. Data were obtained from three independent experiments.
Figure 3 Animal plasma antibacterial activities against E. coli 25922. (a) Dose-dependent reduction of colony forming units (CFU) as determined 24 h after exposure to C14(ω5)OOc10O in human plasma (80% final plasma concentration in PBS). Values represent the mean ± SD obtained from three individual plasma donors (mean inoculum was 1.6 ± 0.8 × 10^6 CFU/mL). (b) Time-kill kinetics determined upon E. coli exposure to 0, 2.5, 5, and 10 µM C14(ω5)OOc10O (from top to bottom, respectively). Values represent the mean ± SD obtained from two individual plasma samples, each subjected to two independent assays. Panels (c–f), respectively, show the OAC’s concentration-dependent activities in plasma samples obtained from pig, cat, sheep, and dog. The three dashed horizontal lines respectively represent the average CFU count of the vehicle control (upper line), the inoculum (middle line), and the limit of detection (lower line), i.e., log10 50 CFU/mL = 1.69. Green stars (*) denote lack of detectable CFU.

[4] = Peptide self-assembly (critical aggregation concentration) by static light scattering; assay type: physicochemical; details: light scattering in PBS
Procedure: Peptide self-assembly was determined by static light scattering measurements as described. Hemolysis was determined by measuring hemoglobin leakage from washed human RBCs, as described. Minimal inhibitory concentration (MIC) was determined using the microdilution assay, as described. Bactericidal kinetics were determined by mixing bacteria with rifampin, OAC, or their combinations, as described. Data were obtained from three independent assays performed in duplicate.

CCCCC=CCCCCCCCC(=O)N[C@@H](CCCN)C(=O)N[C@@H](CCCN)C(=O)NCCCCCCCCCC(=O)N[C@@H](CCCN)C(N)=O [C14(ω5)OOc10O]
Depolarization (dissipation of the transmembrane potential) (E. coli 25922 [1]): only partial depolarization | H, hydrophobicity [2]: 50% | MIC, cat plasma (E. coli 25922 [3]): ≥ 20 µM | MIC, dog plasma (E. coli 25922 [3]): ≥ 20 µM | MIC, human plasma (E. coli 25922 [3]): 2.5 to 5 µM | CAC, critical aggregation concentration [4]: >100 µM
